Test results from US20130190407A1, “CALCIUM RECEPTOR-ACTIVE MOLECULES” (NPS Pharmaceuticals, Inc., priority 1991, published 2013).
Structures can show the parent of a compound that is named as a salt. Where two headings read alike, the source gives them in different places.

Assays:
[1] = system: Sprague-Dawley rats; test: Serum/plasma Ca2+, PTH and calcitonin in rats in vivo; design: species or system rat; conditions: i.p.
Method: Compounds shown to activate the bovine parathyroid cell calcium receptor in vitro were tested for hypocalcemic activity in vivo. Male Sprague-Dawley rats (200 g) were maintained on a low calcium diet for one week prior to receiving test substance or vehicle as control. Blood was collected from the tail vein three hours after the intra-peritoneal administration of NPS 467. […] Serum total calcium, albumin and phosphate were measured by techniques well known in the art.
Rats (male, Sprague-Dawley, 250-300 g) were fed standard rat chow and fasted overnight prior to the experiment. NPS R-467 was suspended in corn oil, and administered as a single oral dose through a gavage needle. Three hours later a sample of blood was taken from the tail vein and assessed for ionized Ca^2+ levels.

[2] = target: T1, parathyroid cell calcium receptor (Bos taurus, UniProt P35384); test: Mobilization of intracellular Ca2+ ([Ca2+]i, fura-2) in bovine parathyroid cells; type: cell-based; design: Parathyroid glands were obtained from freshly slaughtered calves (12-15 weeks old); endogenous in cells; host or cells: dissociated primary bovine (calf) parathyroid cells; conditions: for compounds with any effect on basal [Ca2+]i or increases evoked by extracellular Ca2+: tested at 1 μM; for influx of extracellular Ca2+ / potentiation of Ca2+ mobilization / transient increases in [Ca2+]i: verapamil, D-600, TMB-8 100 μM, NPS 384 300 μM
T1 sequence (P35384 20-1085): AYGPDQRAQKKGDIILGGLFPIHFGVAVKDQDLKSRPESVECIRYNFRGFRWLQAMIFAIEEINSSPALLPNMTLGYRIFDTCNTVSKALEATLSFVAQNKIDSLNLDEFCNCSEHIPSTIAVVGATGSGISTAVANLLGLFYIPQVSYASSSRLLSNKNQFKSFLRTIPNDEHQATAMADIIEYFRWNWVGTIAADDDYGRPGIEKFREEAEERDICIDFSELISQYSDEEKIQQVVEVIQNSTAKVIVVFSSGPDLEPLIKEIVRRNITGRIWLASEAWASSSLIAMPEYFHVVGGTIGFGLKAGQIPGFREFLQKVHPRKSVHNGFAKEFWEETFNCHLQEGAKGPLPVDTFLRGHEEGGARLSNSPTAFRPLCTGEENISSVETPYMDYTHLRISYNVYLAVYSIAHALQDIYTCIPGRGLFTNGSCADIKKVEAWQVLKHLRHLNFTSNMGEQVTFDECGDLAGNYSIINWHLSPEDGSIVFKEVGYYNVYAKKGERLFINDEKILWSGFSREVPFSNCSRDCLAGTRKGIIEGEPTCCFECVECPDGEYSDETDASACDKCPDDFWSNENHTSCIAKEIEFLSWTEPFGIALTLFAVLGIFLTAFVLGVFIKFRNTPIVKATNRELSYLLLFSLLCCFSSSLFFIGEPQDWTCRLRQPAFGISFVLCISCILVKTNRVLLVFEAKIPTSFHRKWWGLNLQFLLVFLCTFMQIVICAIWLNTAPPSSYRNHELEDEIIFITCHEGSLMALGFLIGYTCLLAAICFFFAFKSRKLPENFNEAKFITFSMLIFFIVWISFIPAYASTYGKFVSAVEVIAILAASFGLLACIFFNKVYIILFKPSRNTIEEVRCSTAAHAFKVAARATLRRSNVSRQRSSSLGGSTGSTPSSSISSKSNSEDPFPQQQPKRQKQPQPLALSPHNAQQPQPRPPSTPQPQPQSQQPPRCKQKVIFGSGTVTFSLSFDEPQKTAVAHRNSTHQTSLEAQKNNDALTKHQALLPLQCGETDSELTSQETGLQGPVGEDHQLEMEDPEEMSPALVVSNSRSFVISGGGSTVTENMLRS
Method: This section describes procedures used to obtain and treat parathyroid cells from calves and humans. […] Human parathyroid glands, were obtained from patients undergoing surgical removal of parathyroid tissue for primary or uremic hyperparathyroidism (uremic HPT), and were treated similarly to bovine tissue.
Glands were trimmed of excess fat and connective tissue and then minced with fine scissors into cubes approximately 2-3 mm on a side. Dissociated parathyroid cells were prepared by collagenase digestion and then purified by centrifugation in Percoll buffer. The resultant parathyroid cell preparation was essentially devoid of red blood cells, adipocytes, and capillary tissue as assessed by phase contrast microscopy and Sudan black B staining. Dissociated and purified parathyroid cells were present as small clusters containing 5 to 20 cells.
The cells were then pelleted, resuspended in the same buffer, but lacking the ester, and incubated a further 15 minutes at 37° C. The cells were subsequently washed twice with PCB containing 0.5 mM CaCl2 and 0.5% BSA and maintained at room temperature (about 20° C.) Immediately before use, the cells were diluted five-fold with prewarmed 0.5 mM CaCl2-PCB to obtain a final BSA concentration of 0.1%. The concentration of cells in the cuvette used for fluorescence recording was 1−2×10^6/ml.
The fluorescence of indicator-loaded cells was measured at 37° C. in a spectrofluorimeter (Biomedical Instrumentation Group, University of Pennsylvania, Philadelphia, Pa.) equipped with a thermostated cuvette holder and magnetic stirrer using excitation and emission wavelengths of 340 and 510 nm, respectively. […] Leakage of dye is dependent on temperature and most occurs within the first 2 minutes after warming the cells in the cuvette. Dye leakage increases only very slowly thereafter. To correct the calibration for dye leakage, cells were placed in the cuvette and stirred at 37° C. for 2-3 minutes. The cell suspension was then removed, the cells pelleted, and the supernatant returned to a clean cuvette. […] This estimate was subtracted from the apparent Fmin.

[3] = target: bovine parathyroid cell calcium receptor (bovine) (UniProt P35384); test: cell-based or functional assay
[4] = EC50 for mobilization of intracellular Ca2+, bovine parathyroid cells
[5] = Table 8 (arylalkylamine calcimimetics), parathyroid cell calcium receptor in vitro, read-out: EC50
[6] = 100 to 1000 μM, buffer containing 2 mM CaCl2

Compound: COc1cccc(C(C)NCCCc2ccccc2)c1 (racemic) [NPS 467]
- time course of hypocalcemic effect [1]: maximal within three hours
- serum or whole blood Ca2+ ([1]; three hours, low calcium diet): dose-dependent reduction in serum or whole blood Ca^2+
- circulating levels of PTH ([1]; preliminary studies): dose-dependent reduction in circulating levels of PTH

Compound: CC1=C(C(=O)OC(C)C)[C@H](c2cccc3nonc23)C([N+](=O)[O-])=C(C)N1 [(+) 202-791]
- compounds with any effect on basal [Ca2+]i or increases evoked by extracellular Ca2+ [2]: None

Compound: CC1=C(C(=O)OC(C)C)[C@@H](c2cccc3nonc23)C([N+](=O)[O-])=C(C)N1 [(−) 202-791]
- compounds with any effect on basal [Ca2+]i or increases evoked by extracellular Ca2+ [2]: None

Compound: N=C(N)NCCC[C@H](N)C(=O)NCCCNCCCNCCCCCNC(=O)[C@H](CC(N)=O)NC(=O)Cc1ccc(O)cc1O [Argiotoxin-636, argiotoxin 636]
- effect on cytosolic Ca2+ responses to subsequent extracellular Ca2+ ([2]; 400 μM): did potentiate cytosolic Ca^2+ responses
- increases in [Ca2+]i ([2]; 400 μM): did not elicit increases in [Ca^2+]
- effect on [Ca2+]i ([2]; tested at 100 to 300 μM): no effect

Compound: N=C(N)NCCC[C@H](N)C(=O)NCCCNCCCNCCCCCNC(=O)[C@H](CC(N)=O)NC(=O)Cc1c[nH]c2cccc(O)c12 [Argiotoxin-659, argiotoxin 659]
- effect on [Ca2+]i ([2]; tested at 100 to 300 μM): evoked transient increases in [Ca^2+]i

Compound: COC(=O)C1=C(C)NC(C)=C([N+](=O)[O-])C1c1ccccc1C(F)(F)F (stereo not drawn) [BAY K 8644]
- compounds with any effect on basal [Ca2+]i or increases evoked by extracellular Ca2+ [2]: None

Compound: NCCCCCN [Cadaverine, cadaverine]
- effect on mobilization of intracellular Ca2+ ([2]; tested at 2 mM): inactive

Compound: CSc1cccc(C(C)NCCCc2ccccc2)c1 (stereo not drawn) [Compound 8J, N-(3-Phenylpropyl)-1-(3-thiomethylphenyl)ethylamine hydrochloride]
- EC50 [2, 4]: < 5000 nM
- EC50 [2, 5]: 780 nM

Compound: CC(C)c1ccc(CN[C@H](C)c2cccc3ccccc23)cc1 [Compound 11X, (R)—N-(4-Isopropylbenzyl)-1-(1-naphthyl)ethylamine hydrochloride]
- EC50 [2, 4]: < 5000 nM

Compound: C[C@@H](NCCCc1ccccc1Cl)c1cccc2ccccc12 [Compound 12Z, (R)—N-3-(2-Chlorophenyl)-1-propyl-1-(1-naphthyl)ethylamine hydrochloride]
- EC50 [2, 4]: < 5000 nM

Compound: COc1ccc([C@@H](C)N[C@H](C)c2cccc3ccccc23)cc1 [Compound 14U, (R,R)—N-(1-(4-Methoxyphenyl)ethyl)-1-(1-naphthyl)ethylamine hydrochloride]
- EC50 [2, 4]: < 5000 nM
- EC50 [2, 5]: 130 nM

Compound: COc1ccc(CN[C@H](C)c2cccc3ccccc23)cc1Cl [Compound 17M, (R)—N-(3-Chloro-4-methoxybenzyl)-1-(1-naphthyl)ethylamine hydrochloride]
- EC50 [2, 4]: < 5000 nM
- EC50 [2, 5]: 150 nM

Compound: COc1ccc([C@@H](C)N[C@H](C)c2cccc3ccccc23)cc1C [Compound 17P, (R,R)—N-(1-(4-Methoxy-3-methylphenyl)ethyl)-1-(1-naphthyl)ethylamine hydrochloride]
- EC50 [2, 4]: < 5000 nM
- EC50 [2, 5]: 40 nM

Compound: COc1ccc(CCCN[C@H](C)c2cccc(OC)c2)cc1 [Compound 20I]
- EC50 [2, 5]: < 1000 nM

Compound: COc1ccc(CCN(C)CCCC(C#N)(c2cc(OC)c(OC)c(OC)c2)C(C)C)cc1OC [Compound D-600]
- influx of extracellular Ca2+ [2]: blocked the influx of extracellular Ca^2+
- potentiation of Ca2+ mobilization / transient increases in [Ca2+]i [2]: potentiated the mobilization of intracellular Ca^2+

Compound: C1CNCCNCCNCCNCCNCCN1 [Hexacyclen, 1,4,7,10,13,16-hexaaza-cyclooctadecane]
- potency relative to NPS 383 [2]: 7 fold
- potency relative to pentaethylenehexamine [2]: 25 fold

Compound: CCC[C@@H]1C[C@@H](C(=O)N[C@@H]([C@H]2O[C@H](SC)[C@H](O)[C@@H](O)[C@H]2O)[C@@H](C)O)N(C)C1 [Lincomycin, lincomycin]
- effect on mobilization of intracellular Ca2+ ([2]; tested at 500 μM): without effect

Compound: NCCCCCCCCCCCCNC(=O)Cc1ccc(O)cc1O [NPS 021]
- increase in [Ca2+]i evoked by extracellular Ca2+ ([2]; around 500 μM): abolished
- change in [Ca2+]i by itself ([2]; low [Ca2+] 0.5 mM): does not by itself cause any change in [Ca^2+]i

Compound: COc1ccc(CC(=O)NCCCCCCCCCCCCN)cc1OC [NPS 384]
- increase in [Ca2+]i ([2]; 300 μM): did not evoke an increase in [Ca^2+]i
- effect on [Ca2+]i [2, 6]: prompt fall in [Ca^2+]i
- influx of extracellular Ca2+ [2]: blocked influx of extracellular Ca^2+
- potentiation of Ca2+ mobilization / transient increases in [Ca2+]i [2]: fails to do so

Compound: NCCCCCCCCCCCCN [NPS 472, 1,12-diaminododecane]
- effect on [Ca2+]i [2, 6]: prompt fall in [Ca^2+]i

Compound: NCCCCN [Putrescine]
- effect on mobilization of intracellular Ca2+ ([2]; tested at 2 mM): inactive

Compound: CCN(CC)CCCCCCCCOC(=O)c1cc(OC)c(OC)c(OC)c1 [TMB-8]
- influx of extracellular Ca2+ [2]: blocked the influx of extracellular Ca^2+
- potentiation of Ca2+ mobilization / transient increases in [Ca2+]i [2]: potentiated the mobilization of intracellular Ca^2+
- potentiation of Ca2+ mobilization / transient increases in [Ca2+]i ([2]; listed as TNB-8): potentiated transient increases in [Ca^2+]i

Compound: COc1ccc([C@@H]2Sc3ccccc3N(CCN(C)C)C(=O)[C@@H]2OC(C)=O)cc1 [diltiazem]
- activity like verapamil and D-600 ([2]; 100 μM): effective

Compound: N[C@@H](CCC(=O)O)C(=O)O [glutamate]
- response to mGluR agonists ([2]; bovine parathyroid cells or Xenopus oocytes expressing calcium receptors): did not respond

Compound: COc1cccc(C(C)NCCC(c2ccccc2)c2ccccc2)c1 (stereo not drawn) [meta-Methoxyfendiline]
- potency in mobilization of intracellular Ca2+ ([2]; racemic mixture): as potent as NPS 467

Compound: Philanthotoxin-433
- effect on mobilization of intracellular Ca2+ ([2]; tested at 500 μM): without effect

Compound: polyArg (100) (peptide)
- EC50 for the mobilization of intracellular Ca^2+ (fura-2, bovine parathyroid cells) [3]: 4 nM

Compound: polyArgTyr (22) (peptide)
- EC50 for mobilizing intracellular Ca^2+ [3]: < 100 nM
- EC50 for the mobilization of intracellular Ca^2+ (fura-2, bovine parathyroid cells) [3]: 200 nM

Compound: polyLys (3.8) (peptide)
- EC50 for the mobilization of intracellular Ca^2+ (fura-2, bovine parathyroid cells) [3]: 3000 nM

Compound: polyLys (14) (peptide)
- EC50 for the mobilization of intracellular Ca^2+ (fura-2, bovine parathyroid cells) [3]: 1000 nM

Compound: polyLys (27) (peptide)
- EC50 for the mobilization of intracellular Ca^2+ (fura-2, bovine parathyroid cells) [3]: 30 nM

Compound: protamine (peptide)
- cyclic AMP (% of control), isoproterenol-stimulated, 2 ug/ml protamine, +PTx [3]: 89 % of control
- cyclic AMP (% of control), isoproterenol-stimulated, 2 ug/ml protamine, control [3]: 20 % of control
- potency in mobilizing intracellular Ca^2+ in parathyroid cells (EC50) [3]: 40 nM
